Entries after “also recorded” stand apart in the source; their conditions may differ.
Tests used:
Assay type in all cases: cell-based, human
[1] = system: hiPSC chondrogenic pellets; test: Biochemical analysis of cartilaginous matrix production (GAG/DNA) in hiPSC chondrogenic pellets; details: 1 μM inhibitor + TGF-β3 during pellet culture, d28/d42, vs TGF-β3 or other regimens
Experimental: Chondrogenic differentiation. Cells dissociated at the Cp stage were resuspended at 5×10^5 cells per mL in chondrogenic medium consisting of DMEM/F-12, 1% FBS, 1% ITS+, 55 μM β-mertcaptoethanol, 100 nM dexamethasone (DEX; Sigma-Aldrich, #D4902), 1% NEAA (Gibco, #11140050), 1% P/S, 10 ng ml^−1 human transforming growth factor-beta 3 (TGF-β3; R&D Systems, #243-B3-010), 50 μg ml^−1 L-ascorbic acid 2-phosphate (ascorbate; Sigma-Aldrich, #A8960), and 40 μg ml^−1 L-Proline (proline; Sigma-Aldrich, #P5607). Cells were then centrifuged for 5 min at 300×g to form a pellet. Chondrogenic pellets were cultured at 37° C. for up to the timepoints required for various experiments.
(§1) WNT-C59 and ML329 treatment for WNT and MITF inhibition. For WNT-C59 treatment for WNT inhibition during chondrogenesis, pellets were treated with either 10 ng ml^−1 TGF-β3 (control group) or a combination of 10 ng ml^−1 TGF-β3 and 1 μM WNT-C59 in a chondrogenic medium from d0 to d42 as appropriate. […]
(§2) Biochemical analysis of cartilaginous matrix production. […] GAG content, as calculated based on the standard curve, was normalized to double-stranded DNA content to obtain the GAG/DNA ratio.

[2] = system: CD146/CD166+ cells at the Cp stage; test: FACS for progenitors at the Cp stage; details: with BMP4, 1 μM WNT-C59 or 100 ng/ml WNT3A
Experimental: WNT ligands treatment during chondrogenesis. For WNT ligands treatment during chondrogenesis, pellets were treated with either 10 ng ml^−1 TGF-β3 (control group) or a combination of 10 ng ml^−1 TGF-β3 and 100 ng ml^−1 individual WNT ligand (WNT2B, WNT3A, WNT4, WNT5B, or WNT7B, all from R&D system) in chondrogenic medium from d0 to d42 as appropriate. For WNT ligands treatment during the Cp stage, cells were supplemented with either 20 ng ml^−1 BMP4 (R&D Systems, #314-BP-010) alone (control group), a combination of 20 ng ml^−1 BMP4 and 1 μM WNT-059, or a combination of 20 ng ml^−1 BMP4 and 100 ng ml^−1 WNT3A (R&D Systems, #5036-WN-010) in mesodermal differentiation medium from d7 to d12.
FACS for progenitors. […] Data were analyzed using FlowJo software (version 10.5.3).

[3] = system: hMSC pellets; test: Chondrogenesis of hMSC pellets with WNT inhibition (Saf-O, GAG/DNA)
Excerpt: hMSCs and culture. Discarded and deidentified waste tissue from the iliac crests of adult bone marrow transplant donors was collected in accordance with the institutional review board of Washington University in Saint Louis. Human bone marrow-derived MSCs (hMSCs) were isolated by their physical adherence to plastic culture vessels. Cells were expanded and maintained in an expansion medium consisting of DMEM-low glucose (Thermo Fisher Scientific, #11885092), 1 penicillin/streptomycin (P/S, Thermo Fisher Scientific, #15140-122), 10% lot-selected FBS (Atlanta Biologicals, #S11550), and 1 ng ml^−1 basic fibroblast growth factor (FGF) (R&D Systems, #233-FB). Three individual donors were used as biologic replicates in subsequent experiments.
as §1, §2

[4] = system: hiPSC chondrogenic pellets; test: RNA-FISH of d28 pellets for WNT3A, WNT4 and COL2A1; details: d28 pellets vs TGF-β3-treated
Experimental: RNA fluorescence in situ hybridization (RNA-FISH). […] Pellets were cryo-sectioned at 10 μm thick and fixed using 4% paraformaldehyde in PBS on ice for 10 min. Sample pre-treatment and RNA probe hybridization, amplification, and signal development were performed using the RNAscope Multiplex Fluorescent Reagent Kit v1 (Advanced Cell Diagnostics, #320850) following the manufacturer's instruction. Samples were imaged with multichannel confocal microscopy (Zeiss LSM 880). Tiled images with Z-stacks were taken at 20× magnification to capture the entire pellet. Maximum intensity projection, a process in which the brightest pixel (voxel) in each layer along Z direction is projected in the final 2D image, was performed using Zeiss Zen Blue (version 2.5).

Cc1cc(-c2ccc(CC(=O)Nc3ccc(-c4cccnc4)cc3)cc2)ccn1 [WNT-C59]
GAG/DNA ratio [1]: significantly increased | percentage of CD146/CD166+ cells [2]: largely decreased | GAG/DNA ratio of hMSC pellets ([3]; donor 1 and donor 3, vs TGF-β3 alone): significantly increased | chondrogenesis of hMSC pellets ([3]; hMSCs from 3 donors, WNT-C59 during pellet culture): increased | COL2A1 RNA-FISH labeling [4]: more homogenous distribution; also recorded: increased | WNT3A and WNT4 expression (RNA-FISH) [4]: decreased

— US20230295571A1, “COMPOSITIONS AND METHODS FOR STEM CELL CHONDROGENESIS” (Washington University, priority 2020, published 2023)
